Like-named read-outs stand apart in the source and are kept apart here.
Columns and labels:
[1] = recent studies; versus omeprazole, lansoprazole and other PPIs; cited from earlier work
[2] = doses of between 10 mg and 80 mg; previous studies; cited from earlier work
[3] = elimination half-life in slow metabolisers; type: in vivo, human; conditions: slow metabolisers (deficient in CYP2C19 activity)
Procedure: In another study, it was assessed that the elimination half-life of the (−) isomer of tenatoprazole is approximately 4 times shorter than that of the (+) isomer in slow metabolisers (which are deficient in CYP2C 19 activity), as summarised in the following table: […]

[4] = pharmacokinetic study in Caucasian subjects, acute and repeated administration (7 days) of tenatoprazole; type: in vivo, human
Procedure: In order to assess the difference in pharmacokinetic characteristics between the (−) enantiomer of the invention and the (+) enantiomer, a pharamcokinetic study was conducted.
Said study was carried out in Caucasian subjects, after an acute and repeated administration (7 days) of tenatoprazole. […] In contrast, it was observed that the evolution of the plasma concentration of the (+) isomer is not linear, and thus not predictive of the efficacy and the tolerability of the drug.

[5] = test system: ligature of the pylorus in the rat (gastric secretions); test: model of ligature of the pylorus in the rat: volume and pH of gastric secretion; type: in vivo; conditions: for pharmacological effect 10 h after treatment administration: pylorus ligature, as compared to the control group
Procedure: In vivo Studies in Rats: Assessment of Volume and pH of Gastric Secretion. Studies conducted by the applicant in vivo in a model of ligature of the pylorus in the rat have investigated the pharmacological effects of the (−) and (+) isomers of tenatoprazole. In this well established and validated model, animals are pre-treated at different time points (10, 16 and 20 h) before ligature of the pylorus, and the volume and pH of the gastric secretions are measured 4 h after the ligature.

CYP2C19 = CYP2C19 (Homo sapiens, UniProt P33261); test: in vitro metabolism by cytochrome: maximal rate of metabolism (Vmax); type: in vitro ADME; conditions: for Vmax (maximal rate of metabolism): in vitro
Text: Vmax (−) is the value of Vmax of the (−) enantiomer of tenatoprazole.

intragastric pH in dogs = test: antisecretory effect in dogs: intragastric pH over 24 h; type: in vivo; conditions: for % of holding time for 24 hours pH > 3 / % of holding time for 24 hours pH > 4: 10 mg/kg/day
Procedure: In vivo Studies in Dogs: Assessment of the Antisecretory Effect. Studies conducted by the applicant in vivo in dogs have investigated the antisecretory effect of the (−) isomer of tenatoprazole and the (+) isomer, by measuring the intragastric pH after treatment administration for 6 days (10 mg/kg/day). The profile of intragastric pH during a 24-hour period was recorded on the first two days of administration, on the 6th day, and two days after treatment termination. These pH values were compared to those measured at baseline, prior to treatment administration. The results corresponding to the pH>3 and pH>4 holding time for 24 h, expressed in percent, are described below: […]

[6] = analysis of plasma enantiomers in subjects by CYP2C19 genotype; type: in vivo, human; conditions: for enantiomer in plasma: CYP2C19*2/*2 genotype, weak activity of cytochrome CYP2C19, slow metabolisers; for enantiomer in plasma (concentration): CYP2C19*1/*1 genotype, normal activity of cytochrome CYP2C19, rapid metabolisers
Text: More particularly, the unexpected pharmacokinetic properties of the (−) enantiomer of tenatoprazole were discovered during an extensive program of pharmacokinetic and metabolism studies in vitro and in vivo.
The homozygous subjects have a very weak metabolic activity of the cytochrome CYP2C19 which is responsible for the metabolism of tenatoprazole. […] These subjects are qualified as “slow metabolisers”.

[7] = test system: cytochromes CYP3A4 and CYP2C19; test: cytochromes that intervene in the metabolism of tenatoprazole; type: in vitro ADME
Text: Further, it has been shown that different cytochromes intervene in the metabolism of tenatoprazole.

[8] = mean plasma half-life at doses between 10 mg and 80 mg; type: in vivo; conditions: human, doses of between 10 mg and 80 mg
Procedure: In contrast, previous studies have shown that the racemic mixture has a mean plasma half-life of approximately 7 hours at this range of doses

[9] = test system: ulcerative lesions in rats; test: onset of healing and normalisation of histological changes of ulcerative lesions in rats; type: in vivo
Text: In vivo Studies in Rats: Assessment of the Onset of Healing and the Increase of Normalisation of Histological Changes of the Lesions. […] Thus, the effect observed with the (−) enantiomer of tenatoprazole appeared 1 day before those of the (+) enantiomer. […] These changes consisted in a reduction of the ultrastructural damage resulting in a complete morphological recovery of the oesophageal epithelium.

[10] = in vivo pharmacokinetic and metabolism study in dogs
[11] = after 7 days of treatment with tenatoprazole
[12] = 10 h after treatment administration, gastric secretions measured 4 h after the ligature

Sequence of CYP2C19 (P33261 whole entry): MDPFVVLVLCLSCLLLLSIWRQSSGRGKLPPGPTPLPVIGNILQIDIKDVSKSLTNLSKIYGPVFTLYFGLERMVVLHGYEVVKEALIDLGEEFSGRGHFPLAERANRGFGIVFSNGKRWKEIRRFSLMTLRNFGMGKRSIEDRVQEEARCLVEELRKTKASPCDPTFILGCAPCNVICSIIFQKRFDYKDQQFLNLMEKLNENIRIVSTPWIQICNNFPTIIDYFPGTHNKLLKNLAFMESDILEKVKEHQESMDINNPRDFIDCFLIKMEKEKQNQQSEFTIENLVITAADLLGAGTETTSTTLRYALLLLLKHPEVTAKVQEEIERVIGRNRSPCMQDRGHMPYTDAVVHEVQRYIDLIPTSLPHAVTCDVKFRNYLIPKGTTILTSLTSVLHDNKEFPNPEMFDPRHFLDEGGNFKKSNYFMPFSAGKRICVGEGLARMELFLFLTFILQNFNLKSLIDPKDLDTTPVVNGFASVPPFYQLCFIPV

Question: With `COc1ccc2[nH]c([S+]([O-])Cc3ncc(C)c(OC)c3C)nc2n1` (racemic) [racemic mixture, 5-methoxy-2-[[(4-methoxy-3,5-dimethyl-2-pyridyl)methyl]sulfinyl]imidazo[4,5-b]pyridine] as the compound, how does the “half-life in plasma compared with the other PPIs” value [1] read?
Answer: approximately seven times longer

Question: And the mean plasma half-life [2]?
Answer: approximately 7 hours

Question: Which results are given for `COc1ccc2[nH]c([S@+]([O-])Cc3ncc(C)c(OC)c3C)nc2n1` (single isomer, unassigned) [(+) isomer, reference compound]?
Answer: T1/2 (elimination half-life) [3]: 36.7 ± 4.5 h; plasma concentration versus dose [4, 11]: not linear; Free acid (gastric acidity, change as compared to the control group) [5, 12]: −30%; pH (change as compared to the control group) [5, 12]: +30%; pharmacological effect 10 h after treatment administration [5]: no longer significant; Vmax (maximal rate of metabolism) (CYP2C19): 12.63 pmol/min per pmol of cytochrome; inhibition of gastric secretion (intragastric pH in dogs; 10 mg/kg/day for 6 days): inhibit gastric secretion; enantiomer in plasma ([6]; listed as (+) Enantiomer): Increased; enantiomer in plasma ([6]; listed as (+) enantiomer): highly significant increase; cytochromes via which the enantiomer is metabolised [7]: mainly the CYP2C19 and, to a lesser extent, by CYP3A4

Question: Which half-life ([3]; human, in vivo, read-out: T1/2 (elimination half-life) (converted)) does the source give for `COc1ccc2[nH]c([S+]([O-])Cc3ncc(C)c(OC)c3C)nc2n1` (single isomer, unassigned; (-)) [(−) isomer, (−)-5-methoxy-2-[[(4-methoxy-3,5-dimethyl-2-pyridyl)methyl]sulfinyl]imidazo[4,5-b]pyridine] here?
Answer: 9.7 ± 0.9 h

Question: And the “elimination half-life shorter than that of the (+) isomer” value [3]?
Answer: approximately 4 times

Question: And the AUC versus dose [4, 11]?
Answer: linear with the dose

Question: What about the “plasma concentration versus dose” value [4, 11] of the same compound?
Answer: linear with the dose

Question: And the “between-subject variability of pharmacokinetic parameters” value ([4]; compared to the (+) isomer)?
Answer: markedly lower

Question: What about the half-life [8] of the same compound?
Answer: 10 to 12 h

Question: What about the “quality of healing (normalization of histological changes)” value [9] of the same compound?
Answer: significant increase

Question: What about the “onset of healing of ulcerative lesions” value ([9]; as compared with the (+) enantiomer) of the same compound?
Answer: significantly improved

Question: What about the “appearance of the effect before that of the (+) enantiomer” value ([9]; healing of ulcerative lesions) of the same compound?
Answer: 1 days

Question: And the “pharmacological effect 10 h after treatment administration” value [5]?
Answer: remains pharmacologically active

Question: What about the “metabolised more slowly than the (+) enantiomer” value (CYP2C19; from Vmax values) of the same compound?
Answer: approximately 7 times

Question: And the “Vmax (maximal rate of metabolism)” value (CYP2C19)?
Answer: 1.90 pmol/min per pmol of cytochrome

Question: What about the “inhibition of gastric secretion” value (intragastric pH in dogs; 10 mg/kg/day for 6 days) of the same compound?
Answer: inhibit gastric secretion

Question: What about the “time over which a significant effect is observed” value (intragastric pH in dogs; 10 mg/kg/day for 6 days, compared to baseline) of the same compound?
Answer: from the first day of administration, and is maintained until two days after treatment termination

Question: And the “% of holding time for 24 hours pH > 3” value (intragastric pH in dogs; 1st day of treatment)?
Answer: 73%

Question: What about the “% of holding time for 24 hours pH > 4” value (intragastric pH in dogs; 1st day of treatment) of the same compound?
Answer: 55%

Question: And the “% of holding time for 24 hours pH > 3” value (intragastric pH in dogs; 2nd day of treatment)?
Answer: 82%

Question: What about the “% of holding time for 24 hours pH > 4” value (intragastric pH in dogs; 2nd day of treatment) of the same compound?
Answer: 75%

Question: And the “% of holding time for 24 hours pH > 3” value (intragastric pH in dogs; 6th day of treatment)?
Answer: 93%

Question: And the “% of holding time for 24 hours pH > 4” value (intragastric pH in dogs; 6th day of treatment)?
Answer: 75%

Question: And the “enantiomer in plasma (concentration)” value ([6]; listed as (−) Enantiomer)?
Answer: Increased

Question: What about the “enantiomer in plasma (concentration)” value ([6]; listed as (−) enantiomer) of the same compound?
Answer: higher than that of the (+) enantiomer

Question: And the “cytochromes via which the enantiomer is metabolised” value ([7]; human, cytochromes (CYP3A4, CYP2C19) in vitro)?
Answer: mainly metabolised via the cytochrome CYP3A4

Question: What about the “half-life in comparison with the (+) enantiomer” value [10] of the same compound?
Answer: significantly longer

Source: patent publication US7652034B2, “Enantiomer (-) of tenatoprazole and the therapeutic use thereof” (Sidem Pharma, priority 2004, dated 2010)
